Experiments:
tau protein = target: T1, tau protein (Homo sapiens, UniProt P10636); experiment: Tau protein aggregation inhibition in tau-BiFC cell model; format: cell-based; settings: tau-BiFC cells treated together with Forskolin, 48 hours
T1 construct: expressed in transfected cells
Method: (§1) In order to select new tau protein aggregation-inhibiting materials, tau-BiFC cell models, in which it is easy to observe the formation of tau oligomers in living cells, were used. […] After 48 hours, intracellular nuclei were stained using Hoechst (treatment concentration 2 μg/mL), and BiFC fluorescence intensity was automatically quantified using Operetta (PerkinElmer) to count stained nuclei in each well from the total well plates. […] Further, the degree of cytotoxicity induced by the newly synthesized compound is also based on the 100% survival rate of the group treated with Forskolin alone, and the cytotoxicity value of the compound was calculated by the equation “number of stained nuclei in the group treated with the compound/number of stained nuclei in the group treated with Forskolin x 100”.
(§2) In order to evaluate dose-dependent tau protein aggregation inhibition effects of the compounds selected according to Experimental Example 1, the selected compounds were treated in tau-BiFC cells at concentrations of 0.03 µM, […], 0.3 μM, 1 μM, 3 μM, 10 μM, and 30 μM, respectively, together with Forskolin (treatment concentration 30 µM) as a tau protein aggregation inducing material. After 48 hours, tau protein aggregation reaction and cytotoxicity degree were analyzed by observing cell images. The IC50 and toxicity of the compounds were analyzed by nonlinear regression analysis of prism software (Graph Pad).

Tau-BiFC cells = experiment: Cytotoxicity (cell survival rate) in tau-BiFC cells; settings: group treated with Forskolin alone = 100%
Method: as §1, §2

[1] = Pharmacokinetics in SD rat (plasma PK parameters); format: in vivo
Method: Specifically, an SD rat of 7 to 8 weeks of age (Core Tech, Hana Trading Co., Ltd.) having a body weight of about 250 g to 300 g was purchased, and was managed in a simple breeding room for small animals set to a temperature of 22° C.±2° C., a relative humidity of 50%±5%, a lighting time of 12 hours (light up at 8:00 A.M., turn off at 8:00 P.M.), and an illuminance of 150 lux to 300 lux. During the entire test period, feed was freely provided, RO water was freely provided, and fasting was performed for 16 hours before the oral administration of a drug. After preparing a drug under the conditions shown in Table 5 below, the drug was intravenously injected (IV) or orally administered (PO). 500 µL of transfused blood was collected in a tube containing sodium heparin and centrifuged at 2° C. to 8° C. at 8,000 rpm for 6 minutes to obtain plasma from the blood. The obtained plasma was added to 180 μL of acetonitrile containing internal standard materials, vortexed, and then centrifuged at 15,000 rpm at 4° C. for 5 minutes to obtain a supernatant. The obtained supernatant was analyzed by LC-MS/MS.
Specific PK parameters were acquired using the Phoenix WinNonlin version 6.4 program (Phersight, USA) and wore calculated with a non-compartmental analysis model.

T1 sequence (P10636 2-441 isoform P10636-8 limits assumed): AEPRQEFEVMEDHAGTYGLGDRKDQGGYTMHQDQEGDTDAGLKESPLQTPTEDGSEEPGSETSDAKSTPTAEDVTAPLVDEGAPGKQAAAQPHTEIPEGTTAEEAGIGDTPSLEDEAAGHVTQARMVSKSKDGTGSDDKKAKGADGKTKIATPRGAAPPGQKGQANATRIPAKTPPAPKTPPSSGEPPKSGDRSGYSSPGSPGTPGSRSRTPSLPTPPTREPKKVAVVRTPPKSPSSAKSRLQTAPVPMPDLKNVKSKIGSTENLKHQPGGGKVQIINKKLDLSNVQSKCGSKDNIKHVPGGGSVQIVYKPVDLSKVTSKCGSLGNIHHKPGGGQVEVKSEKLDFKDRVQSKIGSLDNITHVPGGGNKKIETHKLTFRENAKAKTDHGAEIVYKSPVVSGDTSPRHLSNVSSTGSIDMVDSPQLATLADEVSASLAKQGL

| Compound | IC50 (tau protein) | Cell survival rate (% @ 10 μM) (Tau-BiFC cells) | other results |
| --- | --- | --- | --- |
| (2-(pyrazine-2-carboxamido)benzo[d]thiazol-5-yl)carbonohydrazonoyl dicyanide [Compound 99] | 100 nM | 113.1% |  |
| C#Cc1cnc(-c2ccc(NN=C(C#N)C#N)cc2)nc1 [Compound 149, (4-(5-ethynylpyrimidin-2-yl)phenyl)carbohydrazonoyl dicyanide] | 100 nM | 113.9% |  |
| N#CC(C#N)=NNc1ccc2[nH]ccc2c1 [Compound 71, (1H-indol-5-yl)carbonohydrazonoyl dicyanide] | 860 nM | 116.4% |  |
| Cn1ccc2cc(NN=C(C#N)C#N)cnc21 [Compound 76, (1-methyl-1H-pyrrolo[2,3-b]pyridin-5-yl)carbonohydrazonoyl dicyanide] | 40 nM | 195.8% |  |
| N#CC(C#N)=NNc1ccc(-c2ccc3[nH]ccc3c2)cc1 [Compound 58, (4-(1H-indol-5-yl)phenyl)carbonohydrazonoyl dicyanide] | 1200 nM | 113.8% |  |
| N#CC(C#N)=NNc1ccc(-c2ccccn2)cc1 [Compound 10, (4-(pyridin-2-yl)phenyl)carbonohydrazonoyl dicyanide] | 520 nM | 110.1% |  |
| COc1cc(-c2ncccn2)ccc1NN=C(C#N)C#N [Compound 43, (2-methoxy-4-(pyrimidin-2-yl)phenyl)carbonohydrazonoyl dicyanide] | 1840 nM | 112.3% |  |
| Cc1nc(-c2ccc(NN=C(C#N)C#N)cc2)ncc1F [Compound 3, (4-(5-fluoro-4-methylpyrimidin-2-yl)phenyl)carbonohydrazonoyl dicyanide] | 2400 nM | 66% |  |
| Cn1cc2ccc(NN=C(C#N)C#N)cc2n1 [Compound 65, (2-methyl-2H-indazol-6-yl)carbonohydrazonoyl dicyanide] | 72 nM | 103.3% |  |
| Cc1ncncc1C(=O)Nc1nc2ccc(NN=C(C#N)C#N)cc2s1 [Compound 96, (2-(4-methylpyrimidine-5-carboxamido)benzo[d]thiazol-6-yl)carbonohydrazonoyl dicyanide] | 400 nM | 106.1% |  |
| Cc1ccnc(-c2ccc(NN=C(C#N)C#N)cc2F)n1 [Compound 40, (3-fluoro-4-(4-methylpyrimidin-2-yl)phenyl)carbonohydrazonoyl dicyanide] | 2500 nM | 101.3% |  |
| N#CC(C#N)=NNc1ccc(-c2cncs2)cc1 [Compound 20, (4-(thiazol-5-yl)phenyl)carbonohydrazonoyl dicyanide] | 600 nM | 90% |  |
| N#CC(C#N)=NNc1ccc(-c2ncccn2)cc1F [Compound 38, (2-fluoro-4-(pyrimidin-2-yl)phenyl)carbonohydrazonoyl dicyanide] | 940 nM | 88.9% |  |
| N#CC(C#N)=NNc1ccc2nc(NC(=O)c3cncnc3)sc2c1 [Compound 94, (2-(pyrimidine-5-carboxamido)benzo[d]thiazol-6-yl)carbonohydrazonoyl dicyanide] | 2700 nM | 95.3% |  |
| N#CC(C#N)=NNc1ccc(-c2cnc3ccccc3n2)cc1 [Compound 52, (4-(quinoxalin-2-yl)phenyl)carbonohydrazonoyl dicyanide] | 1400 nM | 139.6% |  |
| COc1cc(-c2ncc(C)cn2)ccc1NN=C(C#N)C#N [Compound 41, (2-methoxy-4-(5-methylpyrimidin-2-yl)phenyl)carbonohydrazonoyl dicyanide] | 7000 nM | 126.8% |  |
| Cn1ccc2cc(NN=C(C#N)C#N)ccc21 [Compound 68, (1-methyl-1H-indol-5-yl)carbonohydrazonoyl dicyanide] | 60 nM | 177.2% |  |
| CCc1ccnc(-c2ccc(NN=C(C#N)C#N)cc2)n1 [Compound 6, (4-(4-ethylpyrimidin-2-yl)phenyl)carbonohydrazonoyl dicyanide] | 900 nM | 147.1% |  |
| N#CC(C#N)=NNc1cnc2ccccc2c1 [Compound 64, quinolin-3-ylcarbonohydrazonoyl dicyanide] | 190 nM | 112.5% |  |
| Cn1cc2cc(-c3ccc(NN=C(C#N)C#N)cc3)ccc2n1 [Compound 56, (4-(2-methyl-2H-indazol-5-yl)phenyl)carbonohydrazonoyl dicyanide] |  |  | AUCall ([1]; SD rat plasma, IV 2 mg/kg): 17481.28 hr, ng/mL; Cmax ([1]; SD rat plasma, IV 2 mg/kg): 9140 ng/mL; Tmax ([1]; SD rat plasma, IV 2 mg/kg): 0.12 h; clearance ([1]; SD rat plasma, IV 2 mg/kg): 1.85 mL/min/kg; half-life ([1]; SD rat plasma, IV 2 mg/kg): 1.57 h; AUCall ([1]; SD rat plasma, PO 10 mg/kg): 77995.11 hr, ng/mL; Cmax ([1]; SD rat plasma, PO 10 mg/kg): 11400 ng/mL; Tmax ([1]; SD rat plasma, PO 10 mg/kg): 1.5 h; half-life ([1]; SD rat plasma, PO 10 mg/kg): 3.21 h; F ([1]; SD rat, PO 10 mg/kg versus IV): 89.2% |
| Cn1ncc2cc(NN=C(C#N)C#N)ccc21 [Compound 66, (1-methyl-1H-indazol-5-yl)carbonohydrazonoyl dicyanide] | 12 nM | 96.8% |  |
| Cc1c[nH]c2ncc(NN=C(C#N)C#N)cc12 [Compound 82, (3-methyl-1H-pyrrolo[2,3-b]pyridin-5-yl)carbonohydrazonoyl dicyanide] | 430 nM | 120.2% |  |
| N#CC(C#N)=NNc1ccc(-c2ccc3nccn3c2)cc1 [Compound 53, (4-(imidazo[1,2-a]pyridin-6-yl)phenyl)carbonohydrazonoyl dicyanide] | 1300 nM | 158.2% |  |
| Cc1n[nH]c2cc(NN=C(C#N)C#N)ccc12 [Compound 73, (3-methyl-1H-indazol-6-yl)carbonohydrazonoyl dicyanide] | 1100 nM | 138.5% |  |
| Cc1ncc(C(=O)Nc2nc3ccc(NN=C(C#N)C#N)cc3s2)cn1 [Compound 95, (2-(2-methylpyrimidine-5-carboxamido)benzo[d]thiazol-6-yl)carbonohydrazonoyl dicyanide] | 800 nM | 100.8% |  |
| N#CC(C#N)=NNc1ccc(-c2cnc3nccn3c2)cc1 [Compound 51, (4-(imidazo[1,2-a]pyrimidin-6-yl)phenyl)carbonohydrazonoyl dicyanide] | 7420 nM | 84.2% |  |
| N#CC(C#N)=NNc1ccc(-c2ncccn2)c(F)c1 [Compound 39, (3-fluoro-4-(pyrimidin-2-yl)phenyl)carbonohydrazonoyl dicyanide] | 1510 nM | 89.8% |  |
| COc1cccc2sc(NN=C(C#N)C#N)nc12 [Compound 59, (4-methoxybenzo[d]thiazol-2-yl)carbonohydrazonoyl dicyanide] | 500 nM | 120.3% |  |
